Reference: ChEMBL document CHEMBL1152776, “Facile synthesis of diazido-functionalized biaryl compounds as radioisotope-free photoaffinity probes by Suzuki-Miyaura coupling” (Bioorg Med Chem, 2009)
Calls of active or inactive are those of the source. No cut-off for these calls is given here.

Experiments:
Muscle tissue [1] = assay: Inhibition of physiological calcium release in mouse sarcoplasmic reticular skeletal muscle at 50 uM; type: functional, tissue-based
Mus musculus [2] = species on record: Mus musculus; assay: Inhibition of Ca2+-induced calcium release in mouse sarcoplasmic reticular skeletal muscle at 50 uM; type: functional
[3] = biological target: Ryanodine receptor 1 (Homo sapiens) (UniProt P21817); assay: Binding affinity to RyR1 by photolabeling experiment
Chain of Ryanodine receptor 1 (Homo sapiens) (P21817 whole entry): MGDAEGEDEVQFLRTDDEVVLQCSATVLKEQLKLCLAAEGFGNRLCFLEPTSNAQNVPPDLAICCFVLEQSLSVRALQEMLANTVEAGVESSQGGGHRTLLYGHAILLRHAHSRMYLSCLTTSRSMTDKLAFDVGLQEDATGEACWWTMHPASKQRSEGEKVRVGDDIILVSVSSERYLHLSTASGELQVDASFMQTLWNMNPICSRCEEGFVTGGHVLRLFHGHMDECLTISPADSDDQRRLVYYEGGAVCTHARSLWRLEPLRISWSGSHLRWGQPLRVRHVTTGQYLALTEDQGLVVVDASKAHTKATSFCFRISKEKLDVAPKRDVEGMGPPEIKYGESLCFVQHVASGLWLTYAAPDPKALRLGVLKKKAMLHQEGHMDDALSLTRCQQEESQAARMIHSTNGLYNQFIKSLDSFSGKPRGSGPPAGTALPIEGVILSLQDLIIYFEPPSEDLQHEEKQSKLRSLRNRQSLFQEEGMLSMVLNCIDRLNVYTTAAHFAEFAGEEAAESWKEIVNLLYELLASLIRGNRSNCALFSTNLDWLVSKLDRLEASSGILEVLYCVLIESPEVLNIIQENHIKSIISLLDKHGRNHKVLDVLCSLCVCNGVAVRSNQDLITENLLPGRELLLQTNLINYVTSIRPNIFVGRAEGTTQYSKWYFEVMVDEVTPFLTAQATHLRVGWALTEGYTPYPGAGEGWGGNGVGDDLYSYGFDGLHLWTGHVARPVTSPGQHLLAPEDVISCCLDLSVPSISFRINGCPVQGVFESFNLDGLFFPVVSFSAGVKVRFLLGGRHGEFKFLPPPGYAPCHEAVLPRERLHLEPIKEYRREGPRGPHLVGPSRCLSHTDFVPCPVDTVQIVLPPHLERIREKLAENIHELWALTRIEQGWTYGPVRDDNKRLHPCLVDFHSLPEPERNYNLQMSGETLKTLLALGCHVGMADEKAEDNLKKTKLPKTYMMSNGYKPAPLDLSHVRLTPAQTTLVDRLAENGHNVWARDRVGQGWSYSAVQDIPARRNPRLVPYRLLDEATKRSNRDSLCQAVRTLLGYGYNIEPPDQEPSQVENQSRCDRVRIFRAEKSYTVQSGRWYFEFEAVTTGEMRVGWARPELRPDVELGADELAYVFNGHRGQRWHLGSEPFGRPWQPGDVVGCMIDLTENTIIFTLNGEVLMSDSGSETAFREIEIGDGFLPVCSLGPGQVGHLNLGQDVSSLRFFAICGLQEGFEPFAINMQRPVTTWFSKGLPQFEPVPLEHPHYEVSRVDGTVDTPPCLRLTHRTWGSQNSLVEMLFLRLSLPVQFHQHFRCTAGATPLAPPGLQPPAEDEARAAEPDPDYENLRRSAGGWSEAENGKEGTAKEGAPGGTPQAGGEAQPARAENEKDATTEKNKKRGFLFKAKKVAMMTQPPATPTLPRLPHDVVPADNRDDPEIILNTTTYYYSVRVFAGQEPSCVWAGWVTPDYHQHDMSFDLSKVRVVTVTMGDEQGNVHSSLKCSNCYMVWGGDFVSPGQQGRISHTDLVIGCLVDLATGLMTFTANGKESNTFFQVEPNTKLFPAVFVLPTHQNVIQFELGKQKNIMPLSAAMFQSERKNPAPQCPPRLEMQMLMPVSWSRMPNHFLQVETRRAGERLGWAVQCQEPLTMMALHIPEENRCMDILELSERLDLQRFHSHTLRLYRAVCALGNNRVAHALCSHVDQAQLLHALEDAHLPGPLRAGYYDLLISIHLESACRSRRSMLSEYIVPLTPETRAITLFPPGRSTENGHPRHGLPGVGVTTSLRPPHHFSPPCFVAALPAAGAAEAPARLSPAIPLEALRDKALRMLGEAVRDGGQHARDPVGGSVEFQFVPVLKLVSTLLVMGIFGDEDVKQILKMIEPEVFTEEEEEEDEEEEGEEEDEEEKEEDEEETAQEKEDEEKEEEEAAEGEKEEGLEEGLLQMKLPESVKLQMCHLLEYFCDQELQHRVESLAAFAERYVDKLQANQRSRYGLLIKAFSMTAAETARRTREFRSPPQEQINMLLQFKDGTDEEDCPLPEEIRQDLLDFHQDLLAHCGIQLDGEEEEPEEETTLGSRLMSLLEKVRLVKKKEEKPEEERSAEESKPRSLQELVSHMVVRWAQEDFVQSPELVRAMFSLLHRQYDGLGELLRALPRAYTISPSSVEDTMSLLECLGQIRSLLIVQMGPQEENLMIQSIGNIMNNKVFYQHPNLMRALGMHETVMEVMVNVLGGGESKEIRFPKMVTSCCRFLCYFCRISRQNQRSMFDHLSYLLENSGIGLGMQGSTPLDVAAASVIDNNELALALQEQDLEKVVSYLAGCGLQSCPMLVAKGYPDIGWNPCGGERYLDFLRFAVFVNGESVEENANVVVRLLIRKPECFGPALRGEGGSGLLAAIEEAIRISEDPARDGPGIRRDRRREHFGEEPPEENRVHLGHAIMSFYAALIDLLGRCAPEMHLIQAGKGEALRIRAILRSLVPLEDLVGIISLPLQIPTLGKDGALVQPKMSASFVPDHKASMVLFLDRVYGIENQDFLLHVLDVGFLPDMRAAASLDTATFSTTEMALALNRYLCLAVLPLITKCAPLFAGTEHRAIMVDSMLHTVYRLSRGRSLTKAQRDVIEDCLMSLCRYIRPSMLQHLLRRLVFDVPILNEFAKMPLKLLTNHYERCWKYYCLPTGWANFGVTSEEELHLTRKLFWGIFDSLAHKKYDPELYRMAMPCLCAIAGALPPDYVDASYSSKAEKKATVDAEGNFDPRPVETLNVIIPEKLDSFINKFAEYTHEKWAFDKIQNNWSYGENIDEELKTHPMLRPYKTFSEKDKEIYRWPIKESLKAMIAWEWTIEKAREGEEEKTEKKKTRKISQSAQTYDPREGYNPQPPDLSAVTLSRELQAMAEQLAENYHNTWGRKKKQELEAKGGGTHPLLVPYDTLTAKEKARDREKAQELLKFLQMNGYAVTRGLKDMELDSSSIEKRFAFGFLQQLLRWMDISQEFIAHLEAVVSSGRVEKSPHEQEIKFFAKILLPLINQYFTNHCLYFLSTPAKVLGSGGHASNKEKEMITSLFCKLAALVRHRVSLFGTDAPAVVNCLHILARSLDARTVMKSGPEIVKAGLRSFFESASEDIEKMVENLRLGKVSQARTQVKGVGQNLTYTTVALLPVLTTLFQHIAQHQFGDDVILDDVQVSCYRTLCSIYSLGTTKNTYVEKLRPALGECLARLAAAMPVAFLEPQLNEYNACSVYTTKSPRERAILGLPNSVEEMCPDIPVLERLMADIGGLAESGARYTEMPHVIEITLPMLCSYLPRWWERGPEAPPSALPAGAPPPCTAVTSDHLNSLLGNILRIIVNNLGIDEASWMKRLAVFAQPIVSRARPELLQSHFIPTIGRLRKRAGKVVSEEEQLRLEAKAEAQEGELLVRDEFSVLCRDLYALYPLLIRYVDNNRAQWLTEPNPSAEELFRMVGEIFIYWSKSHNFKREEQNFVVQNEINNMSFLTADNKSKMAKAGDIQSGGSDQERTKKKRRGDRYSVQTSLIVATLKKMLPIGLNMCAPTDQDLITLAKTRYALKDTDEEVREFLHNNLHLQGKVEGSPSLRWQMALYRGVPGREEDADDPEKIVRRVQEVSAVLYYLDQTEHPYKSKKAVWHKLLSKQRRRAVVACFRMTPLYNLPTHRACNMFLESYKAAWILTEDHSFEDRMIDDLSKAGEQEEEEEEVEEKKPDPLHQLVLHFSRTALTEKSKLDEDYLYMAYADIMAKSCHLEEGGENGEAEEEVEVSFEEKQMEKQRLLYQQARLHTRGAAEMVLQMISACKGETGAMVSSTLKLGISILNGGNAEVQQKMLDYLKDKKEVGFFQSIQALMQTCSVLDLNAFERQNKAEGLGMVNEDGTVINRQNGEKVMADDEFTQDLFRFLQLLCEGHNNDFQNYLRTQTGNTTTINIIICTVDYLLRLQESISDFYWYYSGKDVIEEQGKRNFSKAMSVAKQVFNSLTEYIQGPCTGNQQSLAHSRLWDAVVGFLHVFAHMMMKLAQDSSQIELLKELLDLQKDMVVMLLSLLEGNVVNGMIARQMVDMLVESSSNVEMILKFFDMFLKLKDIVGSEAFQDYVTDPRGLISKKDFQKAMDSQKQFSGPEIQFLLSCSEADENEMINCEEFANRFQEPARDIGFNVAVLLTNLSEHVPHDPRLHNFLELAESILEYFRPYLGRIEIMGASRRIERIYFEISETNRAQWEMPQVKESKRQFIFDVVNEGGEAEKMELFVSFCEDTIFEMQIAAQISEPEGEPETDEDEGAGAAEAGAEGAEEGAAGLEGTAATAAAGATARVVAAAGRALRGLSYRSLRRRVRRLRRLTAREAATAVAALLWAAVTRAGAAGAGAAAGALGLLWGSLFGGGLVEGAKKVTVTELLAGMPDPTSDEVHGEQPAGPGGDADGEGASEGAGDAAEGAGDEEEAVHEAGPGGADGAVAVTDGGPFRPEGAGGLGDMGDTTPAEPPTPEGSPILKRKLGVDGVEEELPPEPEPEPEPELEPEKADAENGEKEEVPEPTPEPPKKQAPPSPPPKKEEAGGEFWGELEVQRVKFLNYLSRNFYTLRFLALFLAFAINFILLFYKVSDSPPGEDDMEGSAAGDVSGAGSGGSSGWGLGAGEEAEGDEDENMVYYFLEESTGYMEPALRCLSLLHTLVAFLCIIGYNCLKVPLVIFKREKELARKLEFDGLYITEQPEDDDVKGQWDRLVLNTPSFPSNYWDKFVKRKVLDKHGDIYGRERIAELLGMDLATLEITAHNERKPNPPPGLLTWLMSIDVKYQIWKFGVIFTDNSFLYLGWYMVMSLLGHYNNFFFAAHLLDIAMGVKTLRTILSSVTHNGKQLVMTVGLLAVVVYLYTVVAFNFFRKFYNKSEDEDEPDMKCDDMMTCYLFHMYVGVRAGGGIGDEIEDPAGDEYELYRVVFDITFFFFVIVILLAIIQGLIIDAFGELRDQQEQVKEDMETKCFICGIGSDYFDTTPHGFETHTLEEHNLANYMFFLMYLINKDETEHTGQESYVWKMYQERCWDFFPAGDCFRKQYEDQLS

Muscle tissue [4] = assay: Inhibition of physiological calcium release in mouse sarcoplasmic reticular skeletal muscle; type: functional, tissue-based
Mus musculus [5] = species on record: Mus musculus; assay: Inhibition of Ca2+-induced calcium release in mouse sarcoplasmic reticular skeletal muscle; type: functional
[6] = tested as the 125I-labelled form

[N-]=[N+]=Nc1ccc(-c2ccc(/C=N/N3CC(=O)NC3=O)o2)cc1
Activity (Muscle tissue [1]): Active
Activity (Mus musculus [2]): Active

[N-]=[N+]=NCc1cc(CN2C(=O)CN(/N=C/c3ccc(-c4ccc([N+](=O)[O-])cc4)o3)C2=O)cc(N=[N+]=[N-])c1
Activity [3]: inactive
Activity (Muscle tissue [4]): Active

[N-]=[N+]=Nc1cc(I)cc(CN2C(=O)CN(/N=C/c3ccc(-c4ccc([N+](=O)[O-])cc4)o3)C2=O)c1
Activity [3, 6]: inactive
Activity (Mus musculus [5]; [6]): inactive
Activity (Muscle tissue [4]; [6]): Active

[N-]=[N+]=NCc1cc(N=[N+]=[N-])cc(-c2ccc(/C=N/N3CC(=O)NC3=O)o2)c1
Activity (Mus musculus [5]): inactive
Activity (Muscle tissue [4]): Active
